Laboratory results reported in patent US20240254531A1, “Enhancing Coupled Catalytic Activity of Multi-Enzyme Cascades With Liquid-Liquid Phase Separation Using Peptide-Based Condensates” (The Government of the United States of America, as …, priority 2023, published 2024).

Tests used:
[1] = system: three enzyme cascade (AspB, LysC, Asd); assay: three-enzyme cascade reaction, rate of NADP+ formation with added peptide; type: biochemical, Bacillus subtilis (AspB); E. coli (LysC; conditions: addition of peptide vs no BP, FIG. 6A
Description: A three-enzyme cascade was used for these examples. The first enzyme in the cascade is Bacillus subtilis aspartate ammonia lyase (AspB), which catalyzes the conversion of fumaric acid to aspartic acid. The AspB gene utilized here encodes a 54.5 kDa monomer which assembles into a final active tetramer. The second enzyme is E. coli aspartokinase III (LysC) which phosphorylates aspartic acid in the second step using adenosine triphosphate (ATP) as the phosphate donor. The LysC gene encodes a 49.9 kDa monomer, which assembles into an active ˜100 kDa homodimer. The third enzyme in the cascade, E. coli aspartate-ß-semialdehyde dehydrogenase (Asd), catalyzes conversion of aspartyl phosphate to aspartate semialdehyde using nicotinamide adenine dinucleotide phosphate (NADPH) as the reducing co-factor. The Asd gene encodes a 41.4 kDa monomer which assembles into the active homodimer.
FIG. 2 provides data for free enzymes (not bound to QD) in the presence of different blocking peptides described in Table 1. […]
(§1) Also assayed were two peptides comprising primarily histidine, termed His9 and His12, with their sequences provided below in Table 3. […] FIG. 6C is a fluorescence microscopy image of the same subject of FIG. 6B showing that Alexa594 labeled enzymes are colocalized to the coacervate interior.

[2] = brightfield microscopy of peptide coacervate formation; type: physicochemical; conditions: brightfield microscopy image, FIG. 6B
Description: FIGS. 6A-6C show data for enhancement with His9 and His12 peptides and fluorescence micrograph images denoting coacervate formation and localization of enzymes within the coacervates. In FIG. 6A one can see the normalized initial rate of NADP+ formation of the three enzyme cascade with no BP or with addition of the His9 and His12 peptides. The flux through the cascade is increased with the addition of the BP. […] FIG. 6C is a fluorescence microscopy image of the same field as FIG. 6B showing that Alexa594 labeled enzymes are colocalized to the coacervate interior. Excitation was with a 562 nm laser and detection at 570-620 nm.
as §1, with “3. FIGS. 6A to 6C show data relating to these peptides. […] The flux through the cascade is increased with the addition of the BP.” for “3.”

other enzymes = assay: enhancement of activity of other enzymes by peptide; type: biochemical; conditions: as detailed in the Appendix of Provisional Patent Application No. 63/482,369

Substance: [NH2]WHHHHHHHHHHHH[COOH] (H-WHHHHHHHHHHHH-OH) [His12]
- flux through the cascade (normalized initial rate of NADP+ formation) [1]: increased

Substance: [NH2]WHHHHHHHHH[COOH] (H-WHHHHHHHHH-OH) [His9]
- flux through the cascade (normalized initial rate of NADP+ formation) [1]: increased
- coacervate formation [2]: form coacervates

Substance: [NH2]GSWHHHHHH[Amide] (H-GSWHHHHHH-NH2) [His-amine]
- activity of other enzymes (other enzymes): enhance activity
